Source: US4016167A, “N-Substituted-6,8-dioxamorphinans” (Bristol-Myers Company, priority 1975, dated 1977)
Where a name gives a salt, the structure may show the parent alone.

How the values were obtained:
[1] = system: phenylquinone induced writhings; experiment: Phenylquinone writhing, mouse s.c. (agonist activity); format: in vivo; conditions: 50 percent reduction in number of phenylquinone induced writhings, tested as salts, reported as free base; for ED50 Agonist Activity, Phenylquinone Writhing: tartrate; for ED50: Mus musculus, sc
Text: ^1 A 50 percent reduction in number of phenylquinone induced writhings (Siegmund, E.A. et al., Proc. Soc. Biol. & Med. 95, 729; 1957).

[2] = system: Straub Tail induced by oxymorphone; experiment: Antagonism of Straub Tail induced by oxymorphone in mice (antagonist activity); format: in vivo, mouse; conditions: antagonism of Straub Tail induced by oxymorphone (2 mg./kg. s.c.) in 50 percent of mice, reported as free base; for ED50 Antagonist Activity, Oxymorphone Straub Tail: s.c., tartrate; for ED50: Mus musculus, sc
Description: ^2 Antagonism of Straub Tail induced by oxymorphone (2 mg./kg. s.c.) in 50 percent of mice.

[3] = system: agonist or antagonist activity in mice and rats; experiment: Agonist and/or antagonist activity in mice and rats, overall assessment of the testing results; format: in vivo; conditions: conclusion from Table I
[4] = system: analgesic effect induced by morphine; experiment: Morphine antagonism, rat tail flick (antagonist activity); conditions: sc, read-out: ED50 Antagonist Activity, Morphine Antagonism Rat Tail Flick
[5] = prior art; cited from earlier work

Row | SMILES | ED50 Agonist Activity, Phenylquinone Writhing [1] | ED50 Antagonist Activity, Oxymorphone Straub Tail [2] | ED50 [1] | ED50 [2] | agonist or antagonist activity (in words) [3] | ED50 [4] | agonist and antagonist properties [5]
1 | COc1ccc2c(c1)[C@]13CCN(CC4CC4)[C@H](C2)[C@@H]1OC(C)(C)OC3.O=C(O)C(O)C(O)C(=O)O (single isomer, unassigned) [(+)-XIVd, (+)-17-Cyclopropylmethyl-7,7-dimethyl-3-methoxy-6,8-dioxamorphinan-(-)-hydrogen tartrate] | > 40 mg/kg | > 40 mg/kg |  |  |  |  | 
2 | CC1(C)OCC23CCN(CC4CC4)C(Cc4ccc(O)cc42)C3O1 (single isomer, unassigned) [(+)-XVd, (+)-17,Cyclopropylmethyl-7,7-dimethyl-3-hydroxy-6,8-dioxamorphinan (-) tartrate] |  |  | > 10 mg/kg | > 40 mg/kg |  |  | 
3 | COc1ccc2c(c1)[C@]13CCN(CC4CC4)[C@H](C2)[C@@H]1OC(C)(C)OC3.O=C(O)C(O)C(O)C(=O)O (single isomer, unassigned) [(-)-XIVd, (- )-17-Cyclopropylmethyl-7,7-dimethyl-3-methoxy-6,8-dioxamorphinan-(+ )-hydrogen tartrate] | 0.066 mg/kg | 5 mg/kg |  |  | Outstanding | 1.19 mg/kg | 
4 | CC1(C)OC[C@]23CCN(CC4CC4)[C@H](Cc4ccc(O)cc42)[C@@H]3O1.O=C(O)C(O)C(O)C(=O)O (single isomer, unassigned) [(-)-XVd, (- )-17-Cyclopropylmethyl-7,7-dimethyl-3-hydroxy-6,8-dioxamorphinan (+ ) tartrate] |  |  | 0.005 mg/kg | 0.09 mg/kg | Outstanding | 0.032 mg/kg | 
5 | COc1ccc2c(c1)[C@]13CCN(C)[C@H](C2)[C@@H]1OCOC3 [IXa, 3-Methoxy-17-methyl-6,8-dioxamorphinan] |  |  | ~5 mg/kg | > 20 mg/kg |  |  | 
6 | COc1ccc2c(c1)[C@]13CCN(C)[C@H](C2)[C@]1(C)OCOC3 [IXc, 14β,17-Dimethyl-3-methoxy-6,8-dioxamorphinan] |  |  | 0.31 mg/kg | > 40 mg/kg |  |  | 
7 | COc1ccc2c(c1)[C@]13CCN(C)[C@H](C2)[C@@H]1OC(C)(C)OC3 [IXd, 3-Methoxy-7,7,17-trimethyl-6,8-dioxamorphinan] |  |  | 0.63 mg/kg | > 40 mg/kg |  |  | 
8 | COc1ccc2c(c1)[C@]13CCN[C@H](C2)[C@@H]1OCOC3.O=C(O)/C=C/C(=O)O [XIIa, 3-Methoxy-6,8-dioxamorphinan hydrogen fumarate] |  |  | 7.4 mg/kg | > 20 mg/kg |  |  | 
9 | COc1ccc2c(c1)[C@]13CCN[C@H](C2)[C@]1(C)OCOC3.O=C(O)/C=C/C(=O)O [XIIc, 3-Methoxy-14β-methyl-6,8-dioxamorphinan hydrogen fumarate] |  |  | 2 mg/kg | ~30 mg/kg |  |  | 
10 | COc1ccc2c(c1)[C@]13CCN(CC4CC4)[C@H](C2)[C@@H]1OCOC3.O=C(O)/C=C/C(=O)O [XIVa, 17-Cyclopropylmethyl-3-methoxy-6,8-dioxamorphinan hydrogen fumarate] |  |  | 0.3 mg/kg | ~15 mg/kg | Outstanding |  | 
11 | COc1ccc2c(c1)[C@]13CCN(CC4CCC4)[C@H](C2)[C@@H]1OCOC3 [XIVb, 17-Cyclobutylmethyl-3-methoxy-6,8-dioxamorphinan] |  |  | 2 mg/kg | > 40 mg/kg |  |  | 
12 | COc1ccc2c(c1)[C@]13CCN(CC4CC4)[C@H](C2)[C@]1(C)OCOC3 [XIVc, 17-Cyclopropylmethyl-3-methoxy-14β-methyl-6,8-dioxamorphinan] |  |  | ~5 mg/kg | > 40 mg/kg |  |  | 
13 | COc1ccc2c(c1)[C@]13CCN(CC4CC4)[C@H](C2)[C@@H]1OC(C)(C)OC3.O=C(O)/C=C/C(=O)O [XIVd, 17-Cyclopropylmethyl-7,7-dimethyl-3-methoxy-6,8-dioxamorphinan hydrogen fumarate] |  |  | 0.29 mg/kg | ~30 mg/kg | Outstanding |  | 
14 | COc1ccc2c(c1)[C@]13CCN(CC4CCC4)[C@H](C2)[C@@H]1OC(C)(C)OC3.O=C(O)/C=C/C(=O)O [XIVe, 17-Cyclobutylmethyl-7,7-dimethyl-3-methoxy-6,8-dioxamorphinan hydrogen fumarate] |  |  | 6.1 mg/kg | > 40 mg/kg |  |  | 
15 | Oc1ccc2c(c1)[C@]13CCN(CC4CC4)[C@H](C2)[C@@H]1OCOC3 [XVa, 17-Cyclopropylmethyl-3-hydroxy-6,8-dioxamorphinan] |  |  | 0.02 mg/kg | 0.3 mg/kg | Outstanding | 0.12 mg/kg | 
16 | O=C(O)/C=C/C(=O)O.Oc1ccc2c(c1)[C@]13CCN(CC4CCC4)[C@H](C2)[C@@H]1OCOC3 [XVb, 17-Cyclobutylmethyl-3-hydroxy-6,8-dioxamorphinan fumarate] |  |  | 0.14 mg/kg | ~15 mg/kg | Outstanding | ~9 mg/kg | 
17 | C[C@@]12OCOC[C@@]13CCN(CC1CC1)[C@@H]2Cc1ccc(O)cc13.O=C(O)/C=C/C(=O)O [XVc, 17-Cyclopropylmethyl-3-hydroxy-14β-methyl-6,8-dioxamorphinan hydrogen fumarate] |  |  | 0.064 mg/kg | 0.63 mg/kg | Outstanding | 0.1 mg/kg | 
18 | CC1(C)OC[C@]23CCN(CC4CC4)[C@H](Cc4ccc(O)cc42)[C@@H]3O1.O=C(O)/C=C/C(=O)O [XVd, 17-Cyclopropylmethyl-7,7-dimethyl-3-hydroxy-6,8-dioxamorphinan hydrogen fumarate] |  |  | 0.009 mg/kg | 0.16 mg/kg | Outstanding | 0.096 mg/kg | 
19 | CC1(C)OC[C@]23CCN(CC4CCC4)[C@H](Cc4ccc(O)cc42)[C@@H]3O1.O=C(O)/C=C/C(=O)O [XVe, 17-Cyclobutylmethyl-7,7-dimethyl-3-hydroxy-6,8-dioxamorphinan hydrogen fumarate] |  |  | 0.04 mg/kg | ~15 mg/kg | Outstanding |  | 
20 | CN1CC[C@]23COCO[C@H]2[C@H]1Cc1ccc(O)cc13.O=C(O)/C=C/C(=O)O [Xa, 3-Hydroxy-17-methyl-6,8-dioxamorphinan fumarate] |  |  | 0.3 mg/kg | > 40 mg/kg |  |  | 
21 | CN1CC[C@]23COCO[C@@]2(C)[C@H]1Cc1ccc(O)cc13.O=C(O)/C=C/C(=O)O [Xc, 14β,17-Dimethyl-3-hydroxy-6,8-dioxamorphinan fumarate] |  |  | 0.04 mg/kg | ~40 mg/kg |  |  | 
22 | CN1CC[C@]23COC(C)(C)O[C@H]2[C@H]1Cc1ccc(O)cc13 [Xd, 3-Hydroxy-7,7,17-trimethyl-6,8-dioxamorphinan] |  |  | 0.08 mg/kg | > 40 mg/kg |  |  | 
23 | C[C@H]1[C@H]2Cc3ccc(O)cc3[C@]1(C)CCN2CC1CC1 [cyclazocine] |  |  |  |  |  |  | both properties
